Measurements reported in patent US20230132093A1, “EXTRACELLULAR VESICLE-NLRP3 ANTAGONIST” (Codiak BioSciences, Inc., priority 2019, published 2023).
Entries after “also recorded” stand apart in the source; their conditions may differ.

What was measured:
[1] = test system: primary human MO macrophages; assay: Cell viability of cultured primary human MO macrophages treated with ASO; assay type: cell-based
human NLRP3 = assay: IL-1β secretion in cultured primary human MO macrophages after ASO, LPS and ATP; assay type: cell-based; conditions: for IL-1β induction: 50 nM ASO; for IL-1β secretion relative to ASO scramble controls: most donor cell populations
Experimental: The top-performing ASOs were further analyzed using human monocytes isolated from whole blood. Isolated monocytes were cultured for seven to eight days in M-CSF. Cells were then seeded and cultured overnight. […] Three hours later, the cells were treated with 5 mM ATP. Three hours later, IL-1β levels were measured using AlpaLISA. Cholesterol-tagged ASOs were incubated with PTGFRN-overexpressing exosomes to load the ASOs on the surface of the exosomes.

mouse NLRP3 transcript = assay: NLRP3 knock down in mouse J774.1 cells, qRT-PCR; assay type: cell-based; conditions: 7-point titration
Experimental: In silico analysis of the mouse NLRP3 transcript was used to generate 100 candidate NLRP3 ASOs. Mouse J774.1 cells were treated in vitro with either 5 nM or 20 nM of each candidate NLRP3 ASO. NLRP3 expression was measured using qRT-PCR, and about 30 ASOs yielding a knock down of at least 50% were subjected to further analysis. The top 22 performing ASOs were then subjected to a 7-point titration of various concentrations in mouse J774.1 cells, and NLRP3 expression was again measured by qRT-PCR (FIGS. 4A-4V).

mouse NLRP3 reporter = assay: Knock down of HiBit-fused mouse NLRP3 reporter in HEK reporter cell line; assay type: cell-based; conditions: eleven concentrations
From the text: A HEK reporter cell line was transfected with a mouse NLRP3 reporter contruct (FIG. 5A) to assay NLRP3 knockdown at eleven concentrations for the top five performing mouse ASOs (ASO Nos. 16, 19, 70, 98, and 43; FIG. 5B).

NLRP3 pathway = assay: IL-1β secretion in BMDM after ASO-RNAiMAX transfection, LPS and ATP; assay type: cell-based, mouse; conditions: 2 days post transfection, 200 ng/mL LPS 3 h, 5 mM ATP 3 h
Experimental: Bone marrow-derived macrophages (BMDM) can be used to determine whether knock down of NLRP3 has a downstream effect on activation of the NLRP3 pathway (FIGS. 6A-6B). BMDMs were transfected with increasing concentrations of the top five performing mouse ASOs (ASO Nos. 16, 19, 70, 98, and 43) as part of an ASO-RNAiMAX complex. Two days post transfection, the cells BMDM were treated with 200 ng/mL LPS. Three hour later, the BMDM were treated with 5 mM ATP. Three hours after ATP treatment, IL-1 β secretion was measured.

BMDM = assay: Viability of BMDM treated with LPS, ATP and mNLRP3 ASOs; assay type: cell-based, mouse

Substance | IC50 (mouse NLRP3 transcript) [nM] | Lowest % value (remaining NLRP3 transcript as a percent of starting levels) (mouse NLRP3 transcript) [%] | Knock down of NLRP3 in the HEK reporter cell line (mouse NLRP3 reporter) | IL-1β secretion (NLRP3 pathway) | Viability (BMDM) | further results
ASO 1664: human NLRP3 ASO, SEQ ID NO: 143 (antisense CGTCAAAGGCACCTTGCAGC; chemistry not given here) | – | – | – | – | – | Cell viability ([1]; 2 nM ASO): remained stable; Cell viability ([1]; 10 nM ASO): remained stable; Cell viability ([1]; 50 nM ASO): dropped; IL-1β induction (human NLRP3; 2 nM, 10 nM): dose dependent decrease; IL-1β secretion relative to ASO scramble controls (human NLRP3; 2 nM): reduced IL-1β secretion; IL-1β secretion relative to ASO scramble controls (human NLRP3; 10 nM): reduced IL-1β secretion
ASO 2672: human NLRP3 ASO, SEQ ID NO: 166 (antisense AGTCCATGGCCCTTTGCACG; chemistry not given here) | – | – | – | – | – | Cell viability ([1]; 2 nM ASO): remained stable; Cell viability ([1]; 10 nM ASO): remained stable; Cell viability ([1]; 50 nM ASO): dropped; IL-1β induction (human NLRP3; 2 nM, 10 nM): dose dependent decrease; IL-1β secretion relative to ASO scramble controls (human NLRP3; 2 nM): reduced IL-1β secretion; IL-1β secretion relative to ASO scramble controls (human NLRP3; 10 nM): reduced IL-1β secretion
ASO 3094: human NLRP3 ASO, SEQ ID NO: 174 (antisense GTCGAAGCAGCACTCATGCG; chemistry not given here) | – | – | – | – | – | Cell viability ([1]; 2 nM ASO): remained stable; Cell viability ([1]; 10 nM ASO): remained stable; Cell viability ([1]; 50 nM ASO): dropped; IL-1β induction (human NLRP3; 2 nM, 10 nM): dose dependent decrease; IL-1β secretion relative to ASO scramble controls (human NLRP3; 2 nM): reduced IL-1β secretion; IL-1β secretion relative to ASO scramble controls (human NLRP3; 10 nM): reduced IL-1β secretion
ASO No. 11: mouse NLRP3 ASO, SEQ ID NO: 206, Seq Start 2961 (antisense GCTTCGTAGATAGAGGTGTG; chemistry not fully specified) | 28.2 | 30.70 | – | – | – | –
ASO No. 16: mouse NLRP3 ASO, SEQ ID NO: 201, Seq Start 229 (antisense GCTTGCAACGGACACTCGTC; chemistry not given here) | 6.56 | 36.10 | dose-dependent knock down | decreased IL-1β secretion at all doses tested | increased viability | –
ASO No. 19: mouse NLRP3 ASO, SEQ ID NO: 202, Seq Start 318 (antisense GATACAGCCTTTCTCGGGCG; chemistry not given here) | 12.7 | 36.10 | dose-dependent knock down | decreased IL-1β secretion at all doses tested | increased viability | –
ASO No. 21: mouse NLRP3 ASO, SEQ ID NO: 207, Seq Start 392 (antisense TCGCCATTGAAGTCAATCAT; chemistry not fully specified) | 30.1 | 33.07 | – | – | – | –
ASO No. 41: mouse NLRP3 ASO, SEQ ID NO: 208, Seq Start 984 (antisense CTCTCGGCAGTGGATAAAGA; chemistry not fully specified) | 57.3 | 52.30 | – | – | – | –
ASO No. 43: mouse NLRP3 ASO, SEQ ID NO: 205, Seq Start 1132 (antisense CGTCAAAGGCCCCTTGTAGC; chemistry not given here) | 15.4 | 48.37 | dose-dependent knock down | decreased IL-1β secretion at all doses tested | increased viability | –
ASO No. 48: mouse NLRP3 ASO, SEQ ID NO: 209, Seq Start 1262 (antisense TCCAAGGCTACCGGCCTCGT; chemistry not fully specified) | 60.6 | 65.00 | – | – | – | –
ASO No. 55: mouse NLRP3 ASO, SEQ ID NO: 210, Seq Start 1740 (antisense CTCGCAGTCCACTTCCTTCT; chemistry not fully specified) | 63.1 | 59.17 | – | – | – | –
ASO No. 70: mouse NLRP3 ASO, SEQ ID NO: 203, Seq Start 2235 (antisense CGTTTTGACCCTATGACAGT; chemistry not given here) | 13.4 | 30.43 | dose-dependent knock down | decreased IL-1β secretion at all doses tested | increased viability | –
ASO No. 98: mouse NLRP3 ASO, SEQ ID NO: 204, Seq Start 3761 (antisense CGGGATGGTCAGTTAACAGG; chemistry not given here) | 14.7 | 42.17 | – | decreased IL-1β secretion at all doses tested | increased viability | Knock down of NLRP3 in the HEK reporter cell line (mouse NLRP3 reporter; listed as 98): dose-dependent knock down; also recorded: most robust knock down
